Measurements as given in US6468567B1, “Malt beverage having stabilized flavor and methods of production thereof” (Cerveceria Polar, C.A., priority 1997, dated 2002).

Assay: Addition of 1,2-phenylenediamine to wort (chromatogram)
Details: wort + 1,2-phenylenediamine versus wort; FIG. 5
Procedure: FIG. 5. […] A: wort. B: wort+1,2-phenylenediamine.
A fixed volume (2.2 ml) of 5% 1,2-phenylenediamine (OPD) in methanol was added to a bottle of beer (222 ml) that was then recapped and kept at 20° C. for 12 hours. After 12 hours of reaction, 25 ml of sample were extracted with chloroform (3×8 ml). The chloroform organic phase was removed by centrifugation at 3000 rpm for 10 min, collected, washed with 0.1 M HCl (3×8 ml) in order to remove the unreacted 1,2-phenylenediamine, and semi-dried with magnesium sulfate. The semi-dried organic phase, which contained the hydrophobic quinoxaline derivatives, was then rotavapped to dryness, and the residue resuspended in 250 μl of acetonitrile, and diluted 1/10 (50% solvent A and 50% solvent B) before chromatographic analysis. Hydrophobic quinoxalines were analyzed using Method I (see below). The aqueous phase, containing hydrophilic quinoxalines, was injected directly and analyzed using Method II (see below).
Chromatographic conditions were as follows: a Nova-Pak C18 (Waters) column 3.9×150 mm, 4 μm was used. The mobile phase was: solvent A—95% water (Milli-Q) and 5% acetonitrile; solvent B—90% acetonitrile and 10% water; flow rate 0.7 ml/min. Elution was monitored with a Waters 991 Photodiode Array Detector (200 nm-360 nm).

## Nc1ccccc1N [1,2-phenylenediamine]
  change in the LC18 peak: specific reduction
